Measurements published in patent publication US20220202882A1, “EFFECT OF COMBINATION OF BIFIDOBACTERIUM AND BERBERINE ON PRE-DIABETES AND TYPE 2 DIABETES” (The Fourth Military Medical University, priority 2018, published 2022).
Counter-ions that a name gives are not always drawn.

Tested on: pre-diabetic and type 2 diabetes mellitus patients
Assay: Clinical trial: adverse events (safety evaluation)
Assay type: in vivo, human
Procedure: From June 2015 to October 2018, a double-blind, randomized, and parallel-controlled trial, studying the effects of the combined use of Bifidobacterium and berberine on pre-diabetic and type 2 diabetes mellitus patients, was conducted in 10 research centers in Xi'an, Yan'an and Shangluo of Shaanxi province, etc., including the First Affiliated Hospital of the Fourth Military Medical University.
The trial included an enrollment stage of 2 weeks and a treatment stage of 16 weeks. After passing the first visit 1 (see V1 in Table 1), the subjects entered the enrollment stage, i.e., 2 weeks of lifestyle intervention, followed by a re-screening (see V2 in Table 1). The subjects were subjected to a 16-week course of treatment after passing the screening. See Table 1 for the detailed screening parameters.
After the enrollment stage, the baseline data of the 300 successfully enrolled subjects were collected. Meanwhile, the subjects started to receive lifestyle guidance, and were randomly divided into four groups for 16 weeks of treatments.
1) Bifidobacterium group: the subjects were administered with Bifidobacterium capsules (Livzon Pharmaceutical Group Inc., batch no.: 20141013), 0.35 g/capsule, each capsule containing 50,000,000 viable bacteria (Bifidobacterium adolescentis DM8504), 2 capsules/time, 2 times/day, plus berberine placebo tablets (Northeast Pharma Group Shenyang First Pharma Co., Ltd., Lot no.: 20150101, containing 80.2% microcrystalline cellulose, 9.4% pregelatinized starch, 6.4% sodium carboxymethyl starch, 1% magnesium stearate, and 3% copovidone), 0.1 g/tablet, 5 tablets/time, 2 times/day.
2) Berberine group: the subjects were administered with berberine tablets (Northeast Pharma Group Shenyang First Pharma Co., Ltd., Lot no.: 130917, each tablet weighted 0.165 g and contained 0.1 g active berberine ingredient (berberine hydrochloride), with the same excipients as the placebo tablets), 5 tablets/time, 2 times/day, plus Bifidobacterium placebo capsules (Livzon Pharmaceutical Group Inc., Lot no.: 141001, specifically containing 0.348 g spray-dried lactose, and 0.002 g magnesium stearate), 0.35 g/capsule, 2 capsules/time, 2 times/day.
3) Combination Group: the subjects were administered with Bifidobacterium capsules, 0.35 g/capsule, each capsule containing 50,000,000 viable bacteria (B. adolescentis DM8504), 2 capsules/time, 2 times/day, plus berberine tablets, 0.1 g/tablet, each tablet containing 0.1 g active berberine ingredient (berberine hydrochloride), 5 tablets/time, 2 times/day.
4) Control group: the subjects were administered with Bifidobacteria placebo capsules, 0.35 g/capsule, 2 capsules/time, 2 times/day, plus berberine placebo tablets, 0.1 g/tablet, 5 tablets/time, 2 times/day.
Bifidobacterium capsules were taken after meals and berberine tablets were taken before meals.
After the sample testing was finished, 1) Chi-Squared test and t-test were used to evaluate the intergroup balance of the baseline data including the demographic characteristics and pre-treatment indicators, wherein the baseline data referred to those collected at the second visit, before the formal administration, the data collected at the first visit on the enrollment stage were used instead if the data at the second visit was lacking; 2) two-way disordered CM-CH11, Kruska-Wilcox test, etc. were used for analysis and intergroup comparison of pre- and post-treatment indicators such as fasting plasma glucose (FPG), HbA1c, plasma glucose at 2 hours post OGTT (2-h PPG), blood pressure, blood lipids, body weight and BMI; 3) adverse events and hypoglycemia events were described in terms of the type, frequency and relevance with the drugs, for safety evaluation. Software SAS 9.1.3 was used for statistical analysis with all analysis processes being programmed.
All subjects who followed the intent-to-treat principle, grouped randomly, and received the treatment trial and at least one efficacy evaluation were included in the full Analysis Set (FAS). […]

Bifidobacterium
Adverse event rate (human, in vivo): 84% | Event rate of adverse events correlated with medications (human, in vivo): 21.0% | Number of adverse events correlated with medications (abdominal discomfort, abnormal bowel movement) (human, in vivo): 30 | Number of adverse events reported (human, in vivo): 203 | Number of subjects with adverse events (human, in vivo): 84 | Number of subjects with adverse events correlated with medications (human, in vivo): 21

COc1ccc2cc3[n+](cc2c1OC)CCc1cc2c(cc1-3)OCO2 [Berberine, berberine hydrochloride]
Adverse event rate (throughout the trial): 81.63% | Event rate of adverse events correlated with medications (throughout the trial): 18.37% | Number of adverse events correlated with medications (abdominal discomfort, abnormal bowel movement) (throughout the trial): 19 | Number of subjects with adverse events (throughout the trial): 40 | Number of subjects with adverse events correlated with medications (throughout the trial): 9
